Earlier results in US20050159377A1, “Methods of modulating activity of prokaryotic ribosomes” (SmithKline Beecham Corporation, priority 2000, published 2005).

Test system: 50S ribosomal subunit

Which “competition with pleuromutilin for binding” value does the source give for `O=C(N[C@H](CO)[C@H](O)c1ccc([N+](=O)[O-])cc1)C(Cl)Cl` [chloramphenicol] here?
Its value is “weakly compete”.
